Test [1] has as its target T1, BTK (Homo sapiens, UniProt Q06187).
T1 construct: purchased Promega
Nature of the test: BTK inhibitory activity, ADP-Glo + BTK Kinase enzyme system kit (Promega). It is filed as biochemical. The settings on record: BTK enzyme 1 ng/uL, ATP 10 uM, 15 min preincubation, luminescence, duplicate. Here is the method:
(§1) The inhibitory activity against BTK and ITK of the compounds prepared in Examples above were measured as follows.
(§2) The inhibitory activity against BTK was evaluated using ‘ADP-Glo™+BTK Kinase enzyme system’ kit from Promega. […] 5 uL of substrate and 5 uL of ATP prepared at a final concentration of 10 uM were added to all wells of the plate after completion of the reaction, and allowed to react at 30° C. for 1 hour. All wells of the plate after completion of the reaction were treated with 25 uL of ADP-Glo™ reagent and reacted at 30° C. for 40 minutes. Then, 50 uL of the kinase detection buffer was applied to all wells of the plate, and then the light was blocked and reacted at 30° C. for 30 minutes. For the plate for which all reactions were completed, the luminescence was measured and the results were calculated. The evaluation was performed in duplicate. The respective values of negative and positive controls, depending on whether the enzymes were added without treatment of the compound, were determined, and IC50 was calculated based on the values.
Background: ADP-Glo turns the ADP formed in a reaction into a luminescent signal.

Test [2] has as its target T2, ITK (Homo sapiens, UniProt Q08881).
T2 construct: purchased Promega
T2 sequence (Q08881 1-620): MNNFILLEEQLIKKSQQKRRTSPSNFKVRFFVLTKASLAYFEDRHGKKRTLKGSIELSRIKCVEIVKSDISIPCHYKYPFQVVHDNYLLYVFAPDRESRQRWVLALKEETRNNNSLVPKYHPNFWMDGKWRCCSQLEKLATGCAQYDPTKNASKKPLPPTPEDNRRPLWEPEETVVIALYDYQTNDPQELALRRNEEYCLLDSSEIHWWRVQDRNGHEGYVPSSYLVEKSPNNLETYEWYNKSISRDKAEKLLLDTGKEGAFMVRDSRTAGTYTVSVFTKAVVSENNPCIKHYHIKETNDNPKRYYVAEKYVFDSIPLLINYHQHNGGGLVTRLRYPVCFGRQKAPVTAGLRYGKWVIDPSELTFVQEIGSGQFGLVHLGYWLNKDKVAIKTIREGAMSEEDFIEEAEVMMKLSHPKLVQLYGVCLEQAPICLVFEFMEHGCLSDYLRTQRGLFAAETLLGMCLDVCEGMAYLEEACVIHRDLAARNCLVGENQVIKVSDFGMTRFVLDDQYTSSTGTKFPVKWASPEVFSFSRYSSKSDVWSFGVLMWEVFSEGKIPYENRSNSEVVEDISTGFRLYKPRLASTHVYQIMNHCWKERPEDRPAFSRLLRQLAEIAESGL
As to the kind of experiment: ITK inhibitory activity, ADP-Glo + ITK Kinase enzyme system kit (Promega). It is filed as biochemical. The settings on record: ITK enzyme 0.4 ng/uL, ATP 25 uM, 15 min preincubation, luminescence, duplicate. Here is the method: as §1
as §2, with “ITK” for “BTK”, “‘ADP-Glo™+ITK” for “‘ADP-Glo™+BTK”, “25” for “10”

The IC50 is the concentration that inhibits the measured activity by half.

T1 sequence (Q06187 whole entry): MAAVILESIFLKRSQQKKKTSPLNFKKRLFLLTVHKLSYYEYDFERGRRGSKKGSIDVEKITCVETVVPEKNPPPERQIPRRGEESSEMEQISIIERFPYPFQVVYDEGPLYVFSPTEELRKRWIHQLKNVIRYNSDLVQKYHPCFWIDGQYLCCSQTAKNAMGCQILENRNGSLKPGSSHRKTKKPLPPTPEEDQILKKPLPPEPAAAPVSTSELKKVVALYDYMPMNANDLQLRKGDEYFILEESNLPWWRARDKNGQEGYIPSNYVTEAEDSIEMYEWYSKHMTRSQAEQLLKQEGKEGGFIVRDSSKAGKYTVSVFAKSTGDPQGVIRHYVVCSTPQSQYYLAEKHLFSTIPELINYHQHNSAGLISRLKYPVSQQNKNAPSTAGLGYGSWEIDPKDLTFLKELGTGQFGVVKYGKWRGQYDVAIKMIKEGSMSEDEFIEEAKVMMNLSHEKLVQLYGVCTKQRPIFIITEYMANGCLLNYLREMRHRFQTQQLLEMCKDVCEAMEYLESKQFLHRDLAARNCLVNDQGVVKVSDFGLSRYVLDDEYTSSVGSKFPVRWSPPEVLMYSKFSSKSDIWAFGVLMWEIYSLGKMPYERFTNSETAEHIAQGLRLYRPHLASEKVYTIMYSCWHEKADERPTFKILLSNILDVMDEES

For the compound `C=CC(=O)N1CCC[C@@H](n2nc(-c3ccc(C(=O)Nc4ccccn4)cc3Cl)c3c(N)ncc(CC)c32)C1` [Example 68, (R)-4-(1-(1-acryloylpiperidin-3-yl)-4-amino-7-ethyl-1H-pyrazolo[4,3-c]pyridin-3-yl)-3-chloro-N-(pyridin-2-yl)benzamide], the results for the IC50 in test [1] and in test [2] were 0.9 nM and 1.7 nM, respectively.

Regarding `C=CC(=O)N1CCCC(n2nc(-c3ccc(Oc4ccccc4)cc3)c3c(N)ncc(Cc4ccccc4)c32)C1` (stereo not shown) [Example 6, 1-(3-(4-amino-7-benzyl-3-(4-phenoxyphenyl)-1H-pyrazolo[4,3-c]pyridin-1-yl)piperidin-1-yl)prop-2-en-1-one], the half-maximal inhibitory concentration (IC50) turned out to be 29.9 nM in test [1] and 288 nM in test [2].

For `C=CC(=O)N1CCCC(n2nc(-c3ccc(Oc4ccccc4)cc3)c3c(N)ncc(Br)c32)C1` (stereo not shown) [Example 10, 1-(3-(4-amino-7-bromo-3-(4-phenoxyphenyl)-1H-pyrazolo[4,3-c]pyridin-1-yl)piperidin-1-yl)prop-2-en-1-one], the 50% inhibitory concentration (IC50) in test [1] was found to be 2.1 nM; in test [2], 10.8 nM.

In the case of `C=CC(=O)N1CC[C@H](n2nc(-c3ccc(C(=O)Nc4ccccc4)cc3)c3c(N)ncc(-c4cnn(C(F)F)c4)c32)C1` [Example 46, (S)-4-(1-(1-acryloylpyrrolidin-3-yl)-4-amino-7-(1-(difluoromethyl)-1H-pyrazol-4-yl)-1H-pyrazolo[4,3-c]pyridin-3-yl)-N-phenylbenzamide], the IC50 is above 400 nM in test [1] and above 1000 nM in test [2].

For `C=CC(=O)N1CCC[C@@H](n2nc(-c3ccc(C(=O)Nc4ccccc4)cc3)c3c(N)ncc(I)c32)C1` [Example 25, (R)-4-(1-(1-acryloylpiperidin-3-yl)-4-amino-7-iodo-1H-pyrazolo[4,3-c]pyridin-3-yl)-N-phenyl benzamide], the IC50 in test [1] is 1.5 nM; in test [2] it was 39.5 nM.

Consider `C=CC(=O)N1CCC[C@@H](n2nc(-c3ccc(C(=O)Nc4ccccn4)cc3F)c3c(N)ncc(Cl)c32)C1` [Example 49, (R)-4-(1-(1-acryloylpiperidin-3-yl)-4-amino-7-chloro-1H-pyrazolo[4,3-c]pyridin-3-yl)-3-fluoro-N-(pyridin-2-yl)benzamide], for which the IC50 in test [1] was 1.2 nM; in test [2] it was 3.3 nM.

Turning to `C=CC(=O)N1CCC[C@@H](n2nc(-c3ccc(C(=O)N(C(=O)C=C)c4cc(F)ccn4)cc3)c3c(N)nccc32)C1` [Example 42, (R)—N-acryloyl-4-(1-(1-acryloylpiperidin-3-yl)-4-amino-1H-pyrazolo[4,3-c]pyridin-3-yl)-N-(4-fluoropyridin-2-yl)benzamide], the IC50 in test [1] was found to be 66.3 nM; in test [2], 241 nM.

Take `C=CC(=O)N1CCC[C@@H](n2nc(Br)c3c(N)nccc32)C1` [Example 62, (R)-1-(3-(4-amino-3-bromo-1H-pyrazolo[4,3-c]pyridin-1-yl)piperidin-1-yl)prop-2-en-1-one]: the results for the IC50 in test [1] and in test [2] were 6.3 nM and 8.1 nM, respectively.

Consider `C=CC(=O)N1CCC[C@@H](n2nc(-c3ccc(C(=O)Nc4ccccc4)cc3)c3c(N)ncc(-c4cnn(C5CCN(C)CC5)c4)c32)C1` [Example 35, (R)-4-(1-(1-acryloylpiperidin-3-yl)-4-amino-7-(1-(1-methylpiperidin-4-yl)-1H-pyrazol-4-yl)-1H-pyrazolo[4,3-c]pyridin-3-yl)-N-phenylbenzamide], for which the IC50 in test [1] is 1.9 nM; in test [2], 61 nM.

Take `C=CC(=O)N1CCC[C@@H](n2nc(C(=O)Nc3nc4ccc(Br)cc4o3)c3c(N)nccc32)C1` [Example 73, (R)-1-(1-acryloylpiperidin-3-yl)-4-amino-N-(6-bromobenzo[d]oxazol-2-yl)-1H-pyrazolo[4,3-c]pyridine-3-carboxamide]: the values for the IC50 in test [1] and in test [2] were 32 nM and 141 nM, respectively.

As for `C=CC(=O)N1CCC[C@@H](n2nc(-c3ccc(C(=O)Nc4ccccc4)cc3)c3c(N)ncc(-c4cc[nH]n4)c32)C1` [Example 30, (R)-4-(1-(1-acryloylpiperidin-3-yl)-4-amino-7-(1H-pyrazol-5-yl)-1H-pyrazolo[4,3-c]pyridin-3-yl)-N-phenylbenzamide], the IC50 came to 3 nM in test [1] and 490 nM in test [2].

In the case of `C=CC(=O)N1CCC[C@@H](n2nc(-c3ccc(C(=O)Nc4cc(F)ccn4)cc3)c3c(N)nccc32)C1` [Example 41, (R)-4-(1-(1-acryloylpiperidin-3-yl)-4-amino-1H-pyrazolo[4,3-c]pyridin-3-yl)-N-(4-fluoropyridin-2-yl)benzamide], the results for the IC50 in test [1] and in test [2] were 1.5 nM and 10.1 nM, respectively.

Take `C=CC(=O)N1CC2CC1[C@H](n1nc(-c3ccc(C(=O)Nc4ccccn4)cc3F)c3c(N)nccc31)C2` (stereo partly drawn) [Example 51, 4-(1-((6R)-2-acryloyl-2-azabicyclo[2.2.1]heptan-6-yl)-4-amino-1H-pyrazolo[4,3-c]pyridin-3-yl)-3-fluoro-N-(pyridin-2-yl)benzamide]: the results for the IC50 in test [1] and in test [2] were 0.5 nM and 30.8 nM, respectively.

On to `C=CC(=O)N1CCC[C@@H](n2nc(C(=O)Nc3nc4ccccc4o3)c3c(N)ncc(Cl)c32)C1` [Example 75, (R)-1-(1-acryloylpiperidin-3-yl)-4-amino-N-(benzo[d]oxazol-2-yl)-7-chloro-1H-pyrazolo[4,3-c]pyridine-3-carboxamide], for which the results for the IC50 in test [1] and in test [2] were 2.2 nM and 2.4 nM, respectively.

As for `C=CC(=O)N1CCC[C@@H](n2nc(-c3ccc(C(=O)Nc4ccccn4)cc3F)c3c(N)ncc(C#N)c32)C1` [Example 53, (R)-4-(1-(1-acryloylpiperidin-3-yl)-4-amino-7-cyano-1H-pyrazolo[4,3-c]pyridin-3-yl)-3-fluoro-N-(pyridin-2-yl)benzamide], the IC50 in test [1] stood at 0.5 nM; in test [2] it was 4.3 nM.

As for `C=CC(=O)N1CCC[C@@H](n2nc(-c3ccc(C(=O)Nc4ccccn4)cc3)c3c(N)ncc(C)c32)C1` [Example 45, (R)-4-(1-(1-acryloylpiperidin-3-yl)-4-amino-7-methyl-1H-pyrazolo[4,3-c]pyridin-3-yl)-N-(pyridin-2-yl)benzamide], the IC50 stood at 11.2 nM in test [1] and 66.8 nM in test [2].

Consider `C=CC(=O)N1CCC[C@@H](n2nc(-c3ccc(C(=O)Nc4ccccc4)cc3)c3c(N)ncc(-c4cc[nH]n4)c32)C1` [Example 29, (R)-4-(1-(1-acryloylpiperidin-3-yl)-4-amino-7-(1H-pyrazol-3-yl)-1H-pyrazolo[4,3-c]pyridin-3-yl)-N-phenylbenzamide], for which the IC50 in test [1] stood at 3.1 nM; in test [2], 556 nM.

With `C=CC(=O)N1CCC[C@@H](n2nc(-c3ccc(C(=O)Nc4ccccn4)cc3Cl)c3c(N)ncc(Cl)c32)C1` [Example 58, (R)-4-(1-(1-acryloylpiperidin-3-yl)-4-amino-7-chloro-1H-pyrazolo[4,3-c]pyridin-3-yl)-3-chloro-N-(pyridin-2-yl)benzamide], the IC50 in test [1] came to 8.8 nM; in test [2], 9.3 nM.

For the compound `CC#CC(=O)N1CC[C@H](n2nc(-c3ccc(C(=O)Nc4ccccc4)cc3)c3c(N)nccc32)C1` [Example 48, (S)-4-(4-amino-1-(1-but-2-ynoylpyrrolidin-3-yl)-1H-pyrazolo[4,3-c]pyridin-3-yl)-N-phenylbenzamide], the IC50 in test [1] is above 400 nM; in test [2], above 1000 nM.

On to `C=CC(=O)N1CCC[C@@H](n2nc(C(=O)OC(C)(C)C)c3c(N)nccc32)C1` [Example 72, (R)-tert-butyl 1-(1-acryloylpiperidin-3-yl)-4-amino-1H-pyrazolo[4,3-c]pyridine-3-carboxylate], for which the IC50 in test [1] was found to be 88.9 nM; in test [2], 68.2 nM.
